In the test the test system is P388 leukemia ip, CD2F1 mice, survival T/C. The test is described as follows: NCI In Vivo Anticancer Drug Screen. Data for tumor model P388 Leukemia (intraperitoneal) in CD2F1 (CDF1) mice. The conditions noted are these: endpoint: median survival time, higher = longer survival. A digest of the protocol: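 Mice carrying the transplanted tumor received test compound or vehicle. Survival was recorded in each group, and the value is the treated-group measurement divided by that of the vehicle-treated control group.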

The mark [1] stands for this setting: dose: 25.0 mg/kg/injection, schedule: Q01DX009 (ip), vehicle: Klucel (hydroxypropylcellulose) (HPC).
Where [2] appears, read: dose: 25.0 mg/kg/injection, schedule: Q04DX003 (ip), vehicle: saline.
The mark [3] stands for this setting: dose: 50.0 mg/kg/injection, schedule: Q04DX003 (ip), vehicle: saline.
The mark [4] stands for this setting: dose: 100.0 mg/kg/injection, schedule: Q04DX003 (ip), vehicle: saline.
[5] abbreviates: dose: 50.0 mg/kg/injection, schedule: Q01DX005 (ip), vehicle: Klucel (hydroxypropylcellulose) (HPC).
The mark [6] stands for this setting: dose: 100.0 mg/kg/injection, schedule: Q01DX005 (ip), vehicle: Klucel (hydroxypropylcellulose) (HPC).
Setting [7] is: dose: 60.0 mg/kg/injection, schedule: Q01DX005 (ip), vehicle: saline with Tween-80.
The mark [8] stands for this setting: dose: 120.0 mg/kg/injection, schedule: Q01DX005 (ip), vehicle: saline with Tween-80.
Where [9] appears, read: dose: 240.0 mg/kg/injection, schedule: Q01DX005 (ip), vehicle: saline with Tween-80.
Where [10] appears, read: dose: 25.0 mg/kg/injection, schedule: Q01DX009 (ip), vehicle: saline with Tween-80.
[11] abbreviates: dose: 50.0 mg/kg/injection, schedule: Q01DX009 (ip), vehicle: saline with Tween-80.
The mark [12] stands for this setting: dose: 100.0 mg/kg/injection, schedule: Q01DX009 (ip), vehicle: saline with Tween-80.
[13] abbreviates: dose: 50.0 mg/kg/injection, schedule: Q01DX009 (ip), vehicle: Klucel (hydroxypropylcellulose) (HPC).
The mark [14] stands for this setting: dose: 50.0 mg/kg/injection, schedule: Q01DX005 (ip), vehicle: saline with Tween-80.
Where [15] appears, read: dose: 100.0 mg/kg/injection, schedule: Q01DX005 (ip), vehicle: saline with Tween-80.

Where “and” joins values, the source holds several entries; their conditions need not be identical. Equal values may be shown once. Toxic doses and inconclusive results are not listed.

Take `c1ccc2c(c1)[nH]c1nc3ncncc3nc12`: the T/C was 100 % of control (dose: 50.0 mg/kg/injection, schedule: Q01DX009 (ip), vehicle: saline); 100 % of control (dose: 100.0 mg/kg/injection, schedule: Q01DX009 (ip), vehicle: saline); 100 % of control (dose: 200.0 mg/kg/injection, schedule: Q01DX009 (ip), vehicle: saline).

For `CCOC1=C(N2CC2)C(=O)C(OCC)=C(N2CC2)C1=O`, the T/C (dose: 1.25 mg/kg/injection, schedule: Q01DX009 (ip), vehicle: saline) is 171 % of control and the T/C (dose: 2.5 mg/kg/injection, schedule: Q01DX009 (ip), vehicle: saline) is 242 % of control.

As to `Nc1nc(Sc2ccc([N+](=O)[O-])c3nonc23)c2[nH]cnc2n1`, the T/C was 115 % of control (dose: 12.5 mg/kg/injection, schedule: Q01DX009 (ip), vehicle: Klucel (hydroxypropylcellulose) (HPC)) and 88 % of control under setting [1].

`O=CC1C(=O)NC(=O)NC1=O`: the T/C under setting [2] was 112 % of control, the T/C under setting [3] was 100 % of control and the T/C under setting [4] is 114 % of control.

With `CCCCCCCCCCOc1cc2c(=O)c(C(=O)OCC)c[nH]c2cc1OCC`, the T/C is 102 % of control under setting [5]; 98 % of control under setting [6]; 108 % of control (dose: 200.0 mg/kg/injection, schedule: Q01DX005 (ip), vehicle: Klucel (hydroxypropylcellulose) (HPC)).

As for `COC(=O)C1c2cc(OC)c(OC)cc2C(=O)N2CCc3cc4c(cc3C12)OCO4` (configuration not stated), the T/C (dose: 50.0 mg/kg/injection, schedule: Q04DX003 (ip), vehicle: distilled water + Tween-80) was 100 % of control and 101 % of control; the T/C (dose: 100.0 mg/kg/injection, schedule: Q04DX003 (ip), vehicle: distilled water + Tween-80) was 99 % of control and 105 % of control; the T/C (dose: 200.0 mg/kg/injection, schedule: Q04DX003 (ip), vehicle: distilled water + Tween-80) was 97 % of control and 101 % of control; the T/C (dose: 400.0 mg/kg/injection, schedule: Q04DX003 (ip), vehicle: distilled water + Tween-80) is 104 % of control and 100 % of control.

Consider `CC(=O)OC(C)/C=C\C#N` (configuration not stated), for which the T/C (dose: 15.0 mg/kg/injection, schedule: Q01DX005 (ip), vehicle: saline) is 98 % of control and 104 % of control and 86 % of control; the T/C (dose: 30.0 mg/kg/injection, schedule: Q01DX005 (ip), vehicle: saline) is 98 % of control and 100 % of control and 96 % of control.

Take `COCOc1cccc2c1C(O)CC2` (configuration not stated): the T/C by setting is: under setting [7], 100 % of control; under setting [8], 100 % of control; under setting [9], 98 % of control.

For the compound `O=[N+]([O-])c1cccc2nsnc12`, the T/C (dose: 6.25 mg/kg/injection, schedule: Q01DX009 (ip), vehicle: saline with Tween-80) is 100 % of control; the T/C (dose: 12.5 mg/kg/injection, schedule: Q01DX009 (ip), vehicle: saline with Tween-80) is 116 % of control; the T/C under setting [10] is 94 % of control; the T/C under setting [11] was 107 % of control.

Take `CCOC(=O)c1cn[nH]c(=O)c1C`: the T/C is 100 % of control under setting [11]; 96 % of control under setting [12]; 104 % of control (dose: 200.0 mg/kg/injection, schedule: Q01DX009 (ip), vehicle: saline with Tween-80).

For the compound `CC(NCCN(C)C)C1CC2CCCCN2C1` (configuration not stated), the T/C by setting is: under setting [7], 104 % of control; under setting [8], 97 % of control.

With `CSc1ccc(N2C(=O)CSC2=S)cc1Cl`, the T/C was 101 % of control (dose: 50.0 mg/kg/injection, schedule: Q01DX009 (ip), vehicle: suspension in saline); 99 % of control (dose: 100.0 mg/kg/injection, schedule: Q01DX009 (ip), vehicle: suspension in saline); 104 % of control (dose: 200.0 mg/kg/injection, schedule: Q01DX009 (ip), vehicle: suspension in saline).

`OCn1nnc2ccccc21`: the T/C by setting is: under setting [1], 116 % of control; under setting [13], 102 % of control; (dose: 100.0 mg/kg/injection, schedule: Q01DX009 (ip), vehicle: Klucel (hydroxypropylcellulose) (HPC)) 112 % of control; (dose: 200.0 mg/kg/injection, schedule: Q01DX009 (ip), vehicle: Klucel (hydroxypropylcellulose) (HPC)) 106 % of control.

As for `COc1ccc(-n2c(-c3ccc(-n4c(C)nc5ccccc5c4=O)cc3)n[nH]c2=S)cc1`, the T/C is 102 % of control (dose: 37.5 mg/kg/injection, schedule: Q01DX005 (ip), vehicle: Klucel (hydroxypropylcellulose) (HPC)); 105 % of control (dose: 75.0 mg/kg/injection, schedule: Q01DX005 (ip), vehicle: Klucel (hydroxypropylcellulose) (HPC)); 104 % of control (dose: 150.0 mg/kg/injection, schedule: Q01DX005 (ip), vehicle: Klucel (hydroxypropylcellulose) (HPC)).

On to `Nc1nc2c(c(=O)[nH]1)NC(CCNc1ccc(C(=O)NC(CCC(=O)O)C(=O)O)cc1)CN2` (configuration not stated), for which the T/C runs as follows: under setting [10], 100 % of control; under setting [11], 104 % of control and 118 % of control; (dose: 100.0 mg/kg/injection, schedule: Q01DX009 (ip), vehicle: saline sonified) 113 % of control; under setting [12], 122 % of control.

As to `CC(=O)Nc1ccn(C)c1[N+](=O)[O-]`, the T/C (dose: 100.0 mg/kg/injection, schedule: Q01DX001 (ip), vehicle: Klucel (hydroxypropylcellulose) (HPC)) was 100 % of control; the T/C (dose: 200.0 mg/kg/injection, schedule: Q01DX001 (ip), vehicle: Klucel (hydroxypropylcellulose) (HPC)) was 97 % of control; the T/C (dose: 400.0 mg/kg/injection, schedule: Q01DX001 (ip), vehicle: Klucel (hydroxypropylcellulose) (HPC)) is 102 % of control.

In the case of `CCOC(=O)c1c(N)c(=O)oc2c3c(c(O)cc12)OCO3`, the T/C by setting is: under setting [5], 94 % of control; under setting [6], 89 % of control.

`COc1cc(O)c2c(O)c3c(c4c2c1[C@]1(C4)C(C)=CCCC1(C)C)[C@H](O)[C@@]1(O)CC(=O)C(C(N)=O)=C(O)[C@@]1(O)C3=O`: the T/C is 100 % of control (dose: 6.25 mg/kg/injection, schedule: Q04DX003 (ip), vehicle: saline with Tween-80); 112 % of control (dose: 12.0 mg/kg/injection, schedule: Q01DX009 (ip), vehicle: saline with Tween-80); 100 % of control (dose: 12.5 mg/kg/injection, schedule: Q04DX003 (ip), vehicle: saline with Tween-80); 120 % of control and 121 % of control under setting [1]; 113 % of control (dose: 25.0 mg/kg/injection, schedule: Q04DX003 (ip), vehicle: saline with Tween-80); 111 % of control under setting [13].

Turning to `COC(=O)c1c(-c2cc(OC)c(OC)cc2[N+](=O)[O-])cn(C)c1C`, the T/C is, setting by setting: under setting [14], 88 % of control; under setting [15], 86 % of control.

Regarding `O=C1CC(C(Cl)(Cl)Cl)O1` (configuration not stated), the T/C was 97 % of control under setting [2]; 97 % of control under setting [3]; 99 % of control under setting [4]; 99 % of control (dose: 200.0 mg/kg/injection, schedule: Q04DX003 (ip), vehicle: saline).

For the compound `[CH3][Sn]([Cl])([Cl])[c]1ccccc1`, the T/C is 114 % of control (dose: 1.56 mg/kg/injection, schedule: Q04DX003 (ip), vehicle: saline); 109 % of control (dose: 3.12 mg/kg/injection, schedule: Q04DX003 (ip), vehicle: saline); 106 % of control and 117 % of control (dose: 6.25 mg/kg/injection, schedule: Q04DX003 (ip), vehicle: saline).

`O=c1[nH]c(=O)c2c(Cl)cccc2[nH]1`: the T/C is 93 % of control under setting [14]; 100 % of control under setting [15]; 91 % of control (dose: 200.0 mg/kg/injection, schedule: Q01DX005 (ip), vehicle: saline with Tween-80).

For `CCOC(=O)C1CCc2ccc(OC)c(OC)c2C1` (configuration not stated), the T/C is 100 % of control (dose: 12.5 mg/kg/injection, schedule: Q01DX009 (ip), vehicle: other); 97 % of control (dose: 25.0 mg/kg/injection, schedule: Q01DX009 (ip), vehicle: other); 105 % of control (dose: 50.0 mg/kg/injection, schedule: Q01DX009 (ip), vehicle: other); 100 % of control (dose: 100.0 mg/kg/injection, schedule: Q01DX009 (ip), vehicle: other); 110 % of control (dose: 200.0 mg/kg/injection, schedule: Q01DX009 (ip), vehicle: other).

Consider `N#Cc1ccc(NC(=O)Nc2cccc(C#N)c2)cc1`, for which the T/C (dose: 30.0 mg/kg/injection, schedule: Q01DX005 (ip), vehicle: saline with Tween-80) is 100 % of control and 103 % of control; the T/C under setting [7] was 89 % of control and 92 % of control and 94 % of control; the T/C under setting [8] is 91 % of control and 94 % of control; the T/C under setting [9] was 94 % of control.

These data come from PubChem BioAssay AID330 (DTP/NCI, 2004).
